Test results from patent US10568939B2, “Composition and method for improving sleep duration and quality” (Board of Supervisors of Louisiana State University and …, priority 2016, dated 2020).

What was measured:
IL-6 = target: T1, IL-6 (Homo sapiens, UniProt P05231); assay: IL-6 level by ELISA, supernatants of LPS-treated HT-29 cell cultures; format: cell-based; details: HT-29 supernatants, EGCG 20, 35, 50 μM, FIG. 6
T1 construct: IL-6 levels in HT-29 cell culture treated with LPS; endogenous in cells; host or cells: HT-29 (culture supernatant)
T1 sequence (P05231 30-212): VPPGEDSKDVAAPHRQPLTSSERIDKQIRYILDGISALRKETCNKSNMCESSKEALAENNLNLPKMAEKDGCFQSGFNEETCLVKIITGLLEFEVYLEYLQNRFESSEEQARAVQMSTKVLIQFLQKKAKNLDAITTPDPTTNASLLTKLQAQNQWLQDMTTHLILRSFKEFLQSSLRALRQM
Protocol: (§1) A series of in vitro tests were conducted, using levels of components that would be expected to approximate the concentrations that would be seen in vivo following oral consumption of 2 fluid ounces of the novel composition by a 70 kilogram individual.
(§2) • a. Inhibition of Janus kinase 3 (Jak3) by EGCG, CE, or a mixture of EGCG and CE. Jak3 is expressed solely in immune cells. Jak3 expression is an upstream event for the activation of TNF-α and subsequent cytokines such as IL-6. HT-29 colon cancer cells in T-75 flasks were stimulated by LPS (control). HT-29 cells in T-75 flasks were also stimulated by LPS and treated with EGCG (Treatment 1=20 μM (E1), Treatment 2=35 μM (E2), or Treatment 3=50 μM (E3)), CE (extract from 3 g (C1), 6 g (C2), or 10 g (C3) of light roasted chicory), or combinations of the respective low, medium, and high concentrations of EGCG and CE (E1C1, E2C2, or E3C3). C1, C2, or C3 concentrations approximated the levels that would be expected following consumption of 2 fluid ounces of the novel composition by a 70 kilogram individual. […] The effects of the treatments on histamine activity were determined by the inhibition of COX-2 expression. […] The effective concentrations of TNF-α, IL-1β or IL-6 in supernatants were calculated using a standard curve developed using known standards of TNF-α, IL-1β or IL-6. […]

IL-1β = target: T2, IL-1β (Homo sapiens, UniProt P01584); assay: IL-1β level by ELISA, supernatants of LPS-treated HT-29 cell cultures; format: cell-based; details: HT-29 supernatants, EGCG 20, 35, 50 μM, FIG. 5
T2 construct: IL-1β levels in HT-29 cell culture treated with LPS; endogenous in cells; host or cells: HT-29 (culture supernatant)
T2 sequence (P01584 117-269): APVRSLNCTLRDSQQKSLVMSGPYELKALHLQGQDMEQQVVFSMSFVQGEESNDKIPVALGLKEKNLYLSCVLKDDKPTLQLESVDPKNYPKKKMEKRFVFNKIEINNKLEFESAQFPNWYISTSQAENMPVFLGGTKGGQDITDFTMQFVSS
Protocol: as §1, §2

COX-2 expression = assay: Anti-histamine activity: inhibition of COX-2 expression in histamine-treated HeLa cells; format: cell-based; details: 1 μmol/L histamine, 18 h, EGCG 20, 35, 50 μM, positive controls mepyramine maleate and JNJ-7777120, FIG. 3
Protocol: as §1, §2

Janus kinase 3 (Jak3) = assay: Inhibition of Janus kinase 3 (Jak3) expression in LPS-stimulated HT-29 cells; format: cell-based; details: HT-29 cells stimulated by LPS; EGCG 20, 35, 50 μM; CE from 3, 6, 10 g light roasted chicory; combinations E1C1, E2C2, E3C3; triplicates; FIG. 2
Protocol: as §1, §2

[1] = Effect of individual components alone versus the novel combination on sleep; format: in vivo, human; details: component alone or novel combination
TNF-α = target: T3, TNF-α (Homo sapiens, UniProt P01375); assay: TNF-α level by ELISA, supernatants of LPS-treated HT-29 cell cultures; format: cell-based; details: HT-29 supernatants, EGCG 20, 35, 50 μM, FIG. 4
T3 construct: TNF-alpha levels in HT-29 cell culture treated with LPS; endogenous in cells; host or cells: HT-29 (culture supernatant)
T3 sequence (P01375 77-233 limits assumed): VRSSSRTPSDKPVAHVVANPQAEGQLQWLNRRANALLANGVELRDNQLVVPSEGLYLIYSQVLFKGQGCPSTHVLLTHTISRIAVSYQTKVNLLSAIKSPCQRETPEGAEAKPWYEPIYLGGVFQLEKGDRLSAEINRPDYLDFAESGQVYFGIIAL
Protocol: as §1, §2

Row | Structure (SMILES) | IL-6 activity/level (IL-6) | IL-1β activity/level (IL-1β) | COX-2 expression (anti-histamine activity) (COX-2 expression) | Jak3 expression (Janus kinase 3 (Jak3)) | Sleep after awakening in the middle of the night [1] | Sleep onset, depth, efficiency, duration [1] | TNF-α activity/level (TNF-α)
1 | O=C(O[C@@H]1Cc2c(O)cc(O)cc2O[C@@H]1c1cc(O)c(O)c(O)c1)c1cc(O)c(O)c(O)c1 [EGCG, Epigallocatechin gallate] | inhibited the activity of each of TNF-α, IL-1β and IL-6 in a dose-dependent manner | inhibited the activity of each of TNF-α, IL-1β and IL-6 in a dose-dependent manner | inhibited COX-2 expression in a dose-dependent manner, although not as strongly as did the positive controls | inhibited Jak3 expression in a dose-dependent manner | does not improve sleep after awakening in the middle of the night | does not enhance sleep onset, depth, efficiency, or duration | inhibited the activity of each of TNF-α, IL-1β and IL-6 in a dose-dependent manner
2 | CCNC(=O)CC[C@H](N)C(=O)O [Theanine] | – | – | – | – | does not improve sleep after awakening in the middle of the night | does not enhance sleep onset, depth, efficiency, or duration | –
